Where “and” joins values, the source holds several entries; their conditions need not be identical. Equal values may be shown once. Read-outs that look alike come from different tables or passages of the source. Marks after values point to notes of the source that are not given here.
Experiments:
HIV-1 protease = HIV-1 protease (Human immunodeficiency virus type 1 group M subtype B, UniProt P04585); assay: Fluorescence HIV-1 Protease Inhibitor Assay (Pandex); format: biochemical; set-up: made in house; host or cells: E. coli K12 L507/pHP10D (NRRL B-18560)
[1] = system: Viral SN123 infected CEM cells
Procedure: Purpose: To determine IC50 CC50 for compounds:
Media A [1% DMSO] (100 microliters DMSO+9.9 ml media A)
CEM cells @ [1×10^4] cells/ml (4 plate=40 ml) (6 plate=60 ml)
(need 70 microliters of each)
A-D at [10 mM] in 100% DMSO
4 or 6 u-bottom 96-well plates
4 flat bottom 96-well plates for dilutions
8-10 boxes of sterile costar tips
Approximately 10 reagent trays
1000 cells/well=1×10^4 cells/ml=1000 cells/100 microliters 200 microliters=total volume in a well
Cell Preparation and Plating of Cells, Media A and Media A (1% DMSO)
a. Number a 96-well tissue culture plate for each compound tested, one for a control plate, and one for the control compound.
b. Count cells on hemacytometer and resuspend them in 40 ml or 80 ml of Media A at a concentration of [1×10^4]0 cells/ml.
Counting Cells on a Hemacytomer:
Label two 1.8 ml nuc tubes 1 and 2.
Put 0.5 ml of well mixed CEM cells (in growth phase) in tube 1.
Put 50 micoliters PBS and 40 microliters of trypan blue into tube 2.
Mix up the cells in tube 1 then remove 10 microliters of cells and put them into tube 2.
Mix well in tube 2, then remove 10 microliters of the stained cells and put them on the hemacytometer.
Count the number of cells in the center square of the hemacytometer with the microscope set on 10×.
The concentration of the stock CEM's in cells/ml is as follows:
Cells counted×1×10^5=Concentration of CEM's in [cells/ml].
c. Add 200 microliters Media A to: A1 of places 2-6. These are Blanks. A4-H4 of plate 1. These are Blanks.
d. Add 5 microlicers Media A to all wells of Rows A-D of plates 2-6 except A1 (the top half of each plate).
e. Add 50 microliters of Media A to wells A1-D3 of Plate 1 (the top half of the plate).
f. Add 50 microliters Media A[l% DMSO] to all wells of Columns 1-3 of plate 1.
This puts 1000 cells/well.
h. Put plates in an incubator while doing drug dilutions.
Preparation Control and Test Drugs
(1) Put 60 microliters of DMSO into all wells of Columns 2-12, Rows A-E.
(3) Put 70 microliters of A [10 mM] at 100% DMSO into well B1.
(4) Put 70 microliters of B [10 mM] at 100% DMSO into well C1.
(5) Put 70 microliters of C [10 mM] at 100% DMSO into well D1.
(6) Put 70 microliters of D [10 mM] at 100% DMSO into well E1.
Change tips before each dilution.
(1) In rows A-E of another plate make a row for the first 1:10 dilution to correspond to each compound's 100% DMSO row.
A into Row B for the first 1:10 dilution.
B into Row C for the first 1:10 dilution.
C into Row D for the first 1:10 dilution.
D into Row E for the first 1:10 dilution.
(2) Put 180 microliters of media A into all wells of rows A-E corresponding to the 100% DMSO rows. 2.5 ml needed per row.
(3) Remove 20 microliters from all wells of each row of the 100% DMSO rows and transfer it to the corresponding 1:10 row.
(1) Make a plate for every 3 compounds to be tested.
Use 20 ml of media A per plate.
(3) Transfer 25 microliters of each compound from the row in the 1:10 dilution to the corresponding two rows on the 1:100 dilution plate changing tips before each transfer.
Addition of Viral SN123 to Plates
a. Thaw Sn123 in 37° C. water bath for approximately 10 minutes.
b. Dilute Sn123 1:16 by adding 1 ml of Sn123 to 15 ml of media A.
c. Add 50 microliters of Sn123 [1:16] to wells E1-H12 of plates 2-6 and to wells E1-H3 of plate 1.
Addition of Drugs to Plates
a. Add 50 microliters of the control and test drugs from the rows in the 1:100 dilution plates to the appropriate rows in the final plates (changing tips before each transfer). One row in the 1:100 plate will do 4 rows in the final plate. Leave A1 blank.
b. Incubate all plates 7 days at 37° C. 5% CO2.
c. Do Xtt protocol on day 7 as follows:
d. Preparation of Xtt/PMS Solution: (4 plate=20 ml) (6 plate=30 ml)
100 microliters [100 mM] PMS+4.9 ml PBS=PMS at [2 mM]
(2) Heat 500 ml of H2O in microwave for 5 minutes on high.
(3) Put 20 or 30 ml of phenol red RPMI in a 50 ml centrifuge tube.
(4) Put the RPMI in the beaker of hot water.
(5) Add 20 or 30 mg of XTT to the warmed up RPMI.

[2] = normalized to positive control (=1.0), * = a calculated average
[3] = value as run, 35B value of the same run in footnote or parentheses
[4] = normalized to positive control (=1.0), * = a calculated average, read-out: Fluorescence Assay IC50 in ng/mL (converted)
[5] = value as run, 35B value of the same run in footnote or parentheses, read-out: Pandex IC50 ng/ml (converted)
[6] = Human immunodeficiency virus 1, CCRF-CEM, read-out: Whole cell IC50 nM, CEM cells, values in parentheses are 35B in same assay
[7] = Human immunodeficiency virus 1, CCRF-CEM, read-out: Whole cell IC90 nM, CEM cells, values in parentheses are 35B in same assay
[8] = read-out: Whole cell IC50 nM, CEM cells, values in parentheses are 35B in same assay
[9] = read-out: Whole cell IC90 nM, CEM cells, values in parentheses are 35B in same assay

Compound	IC50 (HIV-1 protease; [4]) [nM]	IC50 (HIV-1 protease; [5])	IC50 [1, 6] [nM]	IC90 [1, 7] [nM]	other results
[3S-(3R*,4aR*,8aR*,2′S*,3′S*)]-2-[2′-Hydroxy-3′-phenylmethyl-4′-aza-5′-oxo-5′-[2″-methyl-3″-N-(methylsulfonyl)amino-phenyl)]pentyl] decahydroisoguinoline-3-N-t-butylcarboxamide [Example 36]					Fluorescence Assay IC50 (HIV-1 protease; [2]): 0.062 µg/mL; Pandex IC50 ng/ml (HIV-1 protease; [3]): 93^e ng/ml
CC(C)(C)NC(=O)C1CC2CCCCC2CN1CC(O)C(Cc1ccccc1)NC(=O)c1ccccc1C(F)(F)F (stereo not drawn) [Example 15, [3S-(3R*,4aR*,8aR*,2′S*,3′R*)]-2-[2′-Hydroxy-3′-phenylmethyl-4′-aza-5′-oxo-5′-(2″-trifluoromethylphenyl)pentyl] decahydroisoquinoline-3-N-t-butylcarboxamide]	657	315 nM			
CC(C)c1c(O)cccc1C(=O)NC(Cc1ccccc1)C(O)CN1CC2CCCCC2CC1C(=O)NC(C)(C)C (stereo not drawn) [Example 20, [3S-(3R*,4aR*,8aR*,2′S*,3′R*)]-2-[2′-Hydroxy-3′-phenylmethyl-4′-aza-5′-oxo-5′-(2″-iospropyl-3″-hydroxyphenyl)pentyl] decahydroisoquinoline-3-N-t-butylcarboxamide]	11.5	151 nM	186	671	
CC(C)(C)NC(=O)C1CC2CCCCC2CN1CC(O)C(Cc1ccccc1)NC(=O)c1c(Cl)ccc(O)c1Cl (stereo not drawn) [Example 17, [3S-(3R*,4aR*,8aR*,2′S*,3′R*)]-2-[2′-Hydroxy-3′-phenylmethyl-4′-aza-5′-oxo-5′-(2″,6″-dichloro-3″-hydroxyphenyl)pentyl] decahydroisoquinoline-3-N-t-butylcarboxamide]					Fluorescence Assay IC50 in ng/mL (HIV-1 protease; [2]): 269* ng/mL; Pandex IC50 ng/ml (HIV-1 protease; [3]): 346^b ng/ml
Cc1c(O)cccc1C(=O)NC(Cc1ccccc1)C(O)CN1CC2CCCCC2CC1C(=O)NC(C)(C)C (stereo not drawn) [Example 23, [3S-(3R*,4aR*,8aR*,2′S*,3′R*)]-2-[2′-Hydroxy-3′-phenylmethyl-4′-aza-5′-oxo-5′-(2″-methyl-3″-hydroxyphenyl)pentyl] decahydroisoquinoline-3-N-t-butylcarboxamide]					Fluorescence Assay IC50 (HIV-1 protease; [2]): 0.00025 µg/mL; Pandex IC50 ng/ml (HIV-1 protease; [3]): 0.2^c ng/ml and 0.16^d ng/ml and 0.2^b ng/ml; IC50 [1, 8]: 2.39 nM; IC90 [1, 9]: 19 nM
Cc1c(N)cccc1C(=O)NC(Cc1ccccc1)C(O)CN1CC2CCCCC2CC1C(=O)NC(C)(C)C (stereo not drawn) [Example 18, [3S-(3R*,4aR*,8aR*,2′S*,3′R*)]-2-[2′-Hydroxy-3′-phenylmethyl-4′-aza-5′-oxo-5′-(2″-methyl-3″-aminophenyl)pentyl] decahydroisoquinoline-3-N-t-butylcarboxamide]	126	17.8 nM	739		
Cc1c(O)cccc1C(=O)NC(Cc1ccccc1)C(O)CN1CC2CCCCC2CC1C(=O)NC(C)(C)C (stereo not drawn) [Example 12, [3S-(3R*,4aR*,8aR*,2′S*,3′R*)]-2-[2′-Hydroxy-3′-phenylmethyl-4′-aza-5′-oxo-5′-(2″-methyl-3″-hydroxyphenyl)pentyl] decahydroisoquinoline-3-N-t-butylcarboxamide]	15.5	21.3 nM and 5.23 nM and 17.5 nM	15	47.8	IC50 ([1]; Human immunodeficiency virus 1, CCRF-CEM, read-out: Whole cell IC50 nM, CEM cells, tested as the mesylate salt): 35.7 nM; IC90 ([1]; Human immunodeficiency virus 1, CCRF-CEM, read-out: Whole cell IC90 nM, CEM cells, tested as the mesylate salt): 91.8 nM; IC50 [1, 8]: 22.3 nM; IC90 [1, 9]: 73.2 nM
CC(C)(C)NC(=O)C1CC2CCCCC2CN1CC(O)C(Cc1ccccc1)NC(=O)c1cccnc1Cl (stereo not drawn) [Example 2, [3S-(3R*,4aR*,8aR*,2′S*,3′R*)]-2-[2′-Hydroxy-3′-phenylmethyl-4′-aza-5′-oxo-5′-(2″-chloro-pyrid-3″-yl)pentyl] decahydroisoquinoline-3-N-t-butylcarboxamide]	2000	963 nM			
Cc1c(O)cccc1C(=O)N[C@@H](CSc1ccc2ccccc2c1)[C@H](O)CN1CCCC[C@H]1C(=O)NC(C)(C)C [Example 25, [2S-(2R*,2′S*,3′S*)]-1-[2′-Hydroxy-3′-(naphth-2-ylthiomethyl-4′-aza-5′-oxo-5′-(2″-methyl-3″-hydroxyphenyl)pentyl]piperidine-2-N-t-butylcarboxamide]	5.68	3.55 nM and 25.4 nM			
Cc1c(O)cccc1C(=O)NC(CSc1ccc2ccccc2c1)C(O)CN1CC2CCCCC2CC1C(=O)NC(C)(C)C (stereo not drawn) [Example 24, [3S-(3R*,4aR*,8aR*,2′S*,3′R*)]-2-[2′-Hydroxy-3′-(naphth-2-ylthiomethyl)-4′-aza-5′-oxo-5′-(2″-methyl-3″-hydroxyphenyl)pentyl] decahydroisoquinoline-3-N-t-butylcarboxamide]	9.39	4.53 nM	25		Pandex % at 20 ng/ml (HIV-1 protease; at 20 ng/ml): 84%/20^d
CCCc1c(O)cccc1C(=O)NC(Cc1ccccc1)C(O)CN1CC2CCCCC2CC1C(=O)NC(C)(C)C (stereo not drawn) [Example 22, [3S-(3R*,4aR*,8aR*,2′S*,3′R*)]-2-[2′-Hydroxy-3′-phenylmethyl-4′-aza-5′-oxo-5′-(2″-propyl-3″-hydroxyphenyl)pentyl] decahydroisoquinoline-3-N-t-butylcarboxamide]	1.29	124 nM	400	798	
Cc1c(O)cccc1C(=O)N[C@@H](Cc1ccccc1)[C@H](O)CN1CCN(Cc2cccnc2)C[C@H]1C(=O)NC(C)(C)C [Example 26, [2S-(2R*,2′S*,3′R*)]-1-[2′-Hydroxy-3′-phenylmethyl-4′-aza-5′-oxo-5′-(2″-methyl-3″-hydroxyphenyl)pentyl]-4-(pyrid-3′″-ylmethyl) piperazine-2-N-t-butylcarboxamide]	5.4	4.01 nM	56	166	
CC(C)(C)NC(=O)C1CC2CCCCC2CN1CC(O)C(Cc1ccccc1)NC(=O)c1cccc(O)c1F (stereo not drawn) [Example 1, [3S-(3R*,4aR*,8aR*,2′S*,3′R*)]-2-[2′-Hydroxy-3′-phenylmethyl-4′-aza-5′-oxo-5′-(2″-fluoro-3″-hydroxyphenyl)pentyl]decahydroisoquinoline-3-N-t-butylcarboxamide]	1780	856 nM			
CC(C)(C)NC(=O)C1CC2CCCCC2CN1CC(O)C(Cc1ccccc1)NC(=O)c1ccc[n+]([O-])c1 (stereo not drawn) [Example 5, [3S-(3R*,4aR*,8aR*,2′S*,3′R*)]-2-[2′-Hydroxy-3′-phenylmethyl-4′-aza-5′-oxo-5′-(pyrid-3″yl-N-oxidyl)pentyl] decahydroisoquinoline-3-N-t-butylcarboxamide]	5030	1910 nM			
CCCCc1c(O)cccc1C(=O)NC(Cc1ccccc1)C(O)CN1CC2CCCCC2CC1C(=O)NC(C)(C)C (stereo not drawn) [Example 21, [3S-(3R*,4aR*,8aR*,2′S*,3′R*)]-2-[2′-Hydroxy-3′-phenylmethyl-4′-aza-5′-oxo-5′-(2″-butyl-3′″-hydroxyphenyl)pentyl] decahydroisoquinoline-3-N-t-butylcarboxamide]	16.3	13.7 nM	414	886	
CCc1c(O)cccc1C(=O)NC(Cc1ccccc1)C(O)CN1CC2CCCCC2CC1C(=O)NC(C)(C)C (stereo not drawn) [Example 3, [3S-(3R*,4aR*,8aR*,2′S*,3′R*)]-2-[2′-Hydroxy-3′-phenylmethyl-4′-aza-5′-oxo-5′-(2″-ethyl-3″-hydroxyphenyl)pentyl] decahydroisoguinoline-3-N-t-butylcarboxamide]	44	21.1 nM	96.1	286	
CC(C)(C)NC(=O)C1CC2CCCCC2CN1CC(O)C(Cc1ccccc1)NC(=O)c1cccc(O)c1Cl (stereo not drawn) [Example 11, [3S-(3R*,4aR*,8aR*,2′S*,3′R*)]-2-[2′-Hydroxy-3′-phenylmethyl-4′-aza-5′-oxo-5′-(2″-chloro-3″-hydroxyphenyl)pentyl] decahydroisoquinoline-3-N-t-butylcarboxamide]	9.17	24.6 nM	114		

Reference: patent US20030216569A1, “Method of making HIV protease inhibitors” (priority 1993, published 2003)
